Measurements published in patent publication US20220227707A1, “COMPOUNDS AND COMPOSITIONS FOR TREATING CONDITIONS ASSOCIATED WITH NLRP ACTIVITY” (Novartis AG, priority 2019, published 2022).

Tested on: IL-1β production in PMA-differentiated THP-1 cells
Assay: IL-1β production in PMA-differentiated THP-1 cells stimulated with gramicidin (hTHP-1 assay)
Type: cell-based, human
Conditions: Homo sapiens, THP-1, Average IC50, hTHP-1 assay containing 2% fetal bovine serum
Procedure: Procedure 1: IL-1β Production in PMA-Differentiated THP-1 Cells Stimulated with Gramicidin
THP-1 cells were purchased from the American Type Culture Collection and sub-cultured according to instructions from the supplier. Cells were cultured in complete RPMI 1640 (containing 10% heat inactivated FBS, penicillin (100 units/ml) and streptomycin (100 μg/ml)), and maintained in log phase prior to experimental setup. Prior to the experiment, compounds were dissolved in dimethyl sulfoxide (DMSO) to generate a 30 mM stock. The compound stock was first pre-diluted in DMSO to 3, 0.34, 0.042 and 0.0083 mM intermediate concentrations and subsequently spotted using Echo550 liquid handler into an empty 384-well assay plate to achieve desired final concentration (e.g. 100, 33, 11, 3.7, 1.2, 0.41, 0.14, 0.046, 0.015, 0.0051, 0.0017 μM). DMSO was backfilled in the plate to achieve a final DMSO assay concentration of 0.37%. The plate was then sealed and stored at room temperature until required.
THP-1 cells were treated with PMA (Phorbol 12-myristate 13-acetate) (20 ng/ml) for 16-18 hours. On the day of the experiment the media was removed and adherent cells were detached with trypsin for 5 minutes. Cells were then harvested, washed with complete RPMI 1640, spun down, and resuspended in RPMI 1640 (containing 2% heat inactivated FBS, penicillin (100 units/ml) and streptomycin (100 μg/ml). The cells were plated in the 384-well assay plate containing the spotted compounds at a density of 50,000 cells/well (final assay volume 50 μl). Cells were incubated with compounds for 1 hour and then stimulated with gramicidin (5 μM) (Enzo) for 2 hours. Plates were then centrifuged at 340 g for 5 min. Cell free supernatant ([…]) was collected using a 96-channel PlateMaster (Gilson) and the production of IL-1β was evaluated by HTRF (cisbio). The plates were incubated for 18 h at 4° C. and read using the preset HTRF program (donor emission at 620 nm, acceptor emission at 668 nm) of the SpectraMax i3x spectrophotometer (Molecular Devices, software SoftMax 6). A vehicle only control and a dose titration of CRID3 (100-0.0017 μM) were run concurrently with each experiment.
Procedure 2: […] Production in PMA-Differentiated THP-1 Cells Stimulated with Gramicidin
THP-1 cells were purchased from the American Type Culture Collection and sub-cultured according to instructions from the supplier. Prior to experiments, cells were cultured in complete RPMI 1640 (containing 10% heat inactivated FBS, penicillin (100 units/ml) and streptomycin (100 μg/ml)), and maintained in log phase prior to experimental setup. Prior to the experiment THP-1 were treated with PMA (Phorbol 12-myristate 13-acetate) (20 ng/ml) for 16-18 hours. Compounds were dissolved in dimethyl sulfoxide (DMSO) to generate a 30 mM stock. On the day of the experiment the media was removed and adherent cells were detached with trypsin for 5 minutes. Cells were then harvested, washed with complete RPMI 1640, spun down, resuspended in RPMI 1640 (containing 2% heat inactivated FBS, penicillin (100 units/ml) and streptomycin (100 μg/ml). The cells were plated in a 384-well plate at a density of 50,000 cells/well (final assay volume 50 μl). Compounds were first dissolved in assay medium to obtain a 5× top concentration of 500 μM. 10 step dilutions (1:3) were then undertaken in assay medium containing 1.67% DMSO. 5× compound solutions were added to the culture medium to achieve desired final concentration (e.g. 100, 33, 11, 3.7, 1.2, 0.41, 0.14, 0.046, 0.015, 0.0051, 0.0017 μM). Final DMSO concentration was at 0.37%. Cells were incubated with compounds for 1 hour and then stimulated with gramicidin (5 μM) (Enzo) for 2 hours. Plates were then centrifuged at 340 g for 5 min. Cell free supernatant (40 μL) was collected using a 96-channel PlateMaster (Gilson) and the production of IL-1β was evaluated by HTRF (cisbio). A vehicle only control and a dose titration of CRID3 (100-0.0017 μM) were run concurrently with each experiment. […]

SMILES	IC50 (Table 10, numeric values) [µM]	IC50 (Table 10, class symbols) [µM]
CC(C)c1cc(F)cc(C(C)C)c1CC(=O)NS(=O)(=O)CCCc1ccccc1 [Compound 509]	> 30	
CC(C)c1cc(F)cc(C(C)C)c1CC(=O)NS(=O)(=O)Cc1cccc(C(=O)O)c1 [Compound 510]	> 100	
CC(C)c1cc(F)cc(C(C)C)c1CC(=O)NS(=O)(=O)Cc1ccccc1 [Compound 511]	> 100	
CC(C)c1cc(F)cc(C(C)C)c1CC(=O)NS(=O)(=O)CCCC(=O)O [Compound 512]	> 100	
COC(=O)CCCS(=O)(=O)NC(=O)Cc1c(C(C)C)cc(F)cc1C(C)C [Compound 513]	> 30	
COC(=O)c1cccc(CS(=O)(=O)NC(=O)Cc2c(C(C)C)cc(F)cc2C(C)C)c1 [Compound 514]	> 100	
CC(C)c1cc(F)cc(C(C)C)c1CC(=O)NS(=O)(=O)CCC(=O)O [Compound 515]	> 100	
CC(C)c1cc(F)cc(C(C)C)c1CC(=O)NS(=O)(=O)CCc1ccccc1 [Compound 516]	> 30	
CC(C)c1cc(F)cc(C(C)C)c1CC(=O)NS(=O)(=O)Cc1ccccc1C(=O)O [Compound 517]	> 100	
CC(C)c1cc(F)cc(C(C)C)c1CC(=O)NS(=O)(=O)Cc1ccc(C(=O)O)cc1 [Compound 518]	> 100	
CC(C)c1cc(F)cc(C(C)C)c1CC(=O)NS(=O)(=O)Cc1cc(-c2ccccc2)no1 [Compound 519]	> 30	
COC(=O)CCS(=O)(=O)NC(=O)Cc1c(C(C)C)cc(F)cc1C(C)C [Compound 520, methyl 3-(N-(2-(4-fluoro-2,6-diisopropylphenyl)acetyl)sulfamoyl) propanoate]		1 to 5
CC(C)c1cc(F)cc(C(C)C)c1CC(=O)NS(=O)(=O)Cc1cccnc1 [Compound 522]	> 100	
CC(C)c1cc(F)cc(C(C)C)c1CC(=O)NS(=O)(=O)Cc1cnn(C)c1 [Compound 528]	> 30	
